Earlier results, collected in publication PMC9869109 (Angewandte Chemie (International ed. in English), 2022).

Test system: cell nuclei
Details: previous result ref 12

Q: For NBD-llllpY, which nuclear-targeting ability is on record?
A: weak nuclear-targeting ability
